The source of these data is PubChem BioAssay AID330 (DTP/NCI, 2004).

In this assay the test system is P388 leukemia ip, CD2F1 mice, survival T/C. Nature of the assay: NCI In Vivo Anticancer Drug Screen. Data for tumor model P388 Leukemia (intraperitoneal) in CD2F1 (CDF1) mice. The following applies: endpoint: median survival time, higher = longer survival. In short, it runs like this:
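Mice carrying the transplanted tumor received test compound or vehicle. Survival was recorded in each group, and the value is the treated-group measurement divided by that of the vehicle-treated control group.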

[1] abbreviates: dose: 100.0 mg/kg/injection, schedule: Q01DX001 (ip), vehicle: saline with Tween-80.
Where [2] appears, read: dose: 200.0 mg/kg/injection, schedule: Q01DX001 (ip), vehicle: saline with Tween-80.
[3] abbreviates: dose: 400.0 mg/kg/injection, schedule: Q01DX001 (ip), vehicle: saline with Tween-80.
[4] abbreviates: dose: 50.0 mg/kg/injection, schedule: Q01DX005 (ip), vehicle: saline with Tween-80.
Setting [5] is: dose: 100.0 mg/kg/injection, schedule: Q01DX005 (ip), vehicle: saline with Tween-80.
The mark [6] stands for this setting: dose: 200.0 mg/kg/injection, schedule: Q01DX005 (ip), vehicle: saline with Tween-80.
Where [7] appears, read: dose: 60.0 mg/kg/injection, schedule: Q01DX005 (ip), vehicle: saline with Tween-80.
Setting [8] is: dose: 120.0 mg/kg/injection, schedule: Q01DX005 (ip), vehicle: saline with Tween-80.
Setting [9] is: dose: 240.0 mg/kg/injection, schedule: Q01DX005 (ip), vehicle: saline with Tween-80.
Where [10] appears, read: dose: 50.0 mg/kg/injection, schedule: Q01DX005 (ip), vehicle: Klucel (hydroxypropylcellulose) (HPC).
The mark [11] stands for this setting: dose: 100.0 mg/kg/injection, schedule: Q01DX005 (ip), vehicle: Klucel (hydroxypropylcellulose) (HPC).
The mark [12] stands for this setting: dose: 200.0 mg/kg/injection, schedule: Q01DX005 (ip), vehicle: Klucel (hydroxypropylcellulose) (HPC).
Where [13] appears, read: dose: 50.0 mg/kg/injection, schedule: Q01DX009 (ip), vehicle: saline.
[14] abbreviates: dose: 100.0 mg/kg/injection, schedule: Q01DX009 (ip), vehicle: saline.
Where [15] appears, read: dose: 200.0 mg/kg/injection, schedule: Q01DX009 (ip), vehicle: saline.
[16] abbreviates: dose: 25.0 mg/kg/injection, schedule: Q01DX009 (ip), vehicle: saline with Tween-80.
The mark [17] stands for this setting: dose: 50.0 mg/kg/injection, schedule: Q01DX009 (ip), vehicle: Klucel (hydroxypropylcellulose) (HPC).
The mark [18] stands for this setting: dose: 50.0 mg/kg/injection, schedule: Q01DX009 (ip), vehicle: saline with Tween-80.
[19] abbreviates: dose: 100.0 mg/kg/injection, schedule: Q01DX009 (ip), vehicle: Klucel (hydroxypropylcellulose) (HPC).
Where [20] appears, read: dose: 100.0 mg/kg/injection, schedule: Q01DX009 (ip), vehicle: saline with Tween-80.
The mark [21] stands for this setting: dose: 200.0 mg/kg/injection, schedule: Q01DX009 (ip), vehicle: Klucel (hydroxypropylcellulose) (HPC).
[22] abbreviates: dose: 400.0 mg/kg/injection, schedule: Q01DX009 (ip), vehicle: Klucel (hydroxypropylcellulose) (HPC).

“And” between values parts separate entries of the source, which are not always exact repeats. Identical values can stand only once. Inconclusive results and toxic doses are left out.

Consider `CCC(C)C1NC(=O)C(NC(=O)c2c3nc4c(C(=O)NC5C(=O)NC(C(C)CC)C(=O)N6CCCC6C(=O)N(C)CC(=O)N(C)C(C(C)C)C(=O)OC5C)ccc(C)c4oc-3c(C)c(=O)c2Cl)C(C)OC(=O)C(C(C)C)N(C)C(=O)CN(C)C(=O)C2CCCN2C1=O` (stereo not given), for which the T/C reads like this: (dose: 0.05 mg/kg/injection, schedule: Q01DX009 (ip), vehicle: water) 92 % of control; (dose: 0.1 mg/kg/injection, schedule: Q01DX009 (ip), vehicle: water) 96 % of control; (dose: 0.2 mg/kg/injection, schedule: Q01DX009 (ip), vehicle: water) 99 % of control; (dose: 0.4 mg/kg/injection, schedule: Q01DX009 (ip), vehicle: water) 102 % of control and 111 % of control; (dose: 0.8 mg/kg/injection, schedule: Q01DX009 (ip), vehicle: water) 118 % of control; (dose: 3.2 mg/kg/injection, schedule: Q01DX009 (ip), vehicle: water) 155 % of control. Further, the T/C (dose: 6.4 mg/kg/injection, schedule: Q01DX009 (ip), vehicle: water) is 174 % of control.

For `CC1(C)OC2(c3ccccc3)N(c3ccc([N+](=O)[O-])cc3)N=C(c3ccccc3)N2c2ccccc21` (stereo not given), the T/C was 89 % of control under setting [1], 89 % of control under setting [2] and 88 % of control under setting [3].

For the molecule `O=c1c2ccccc2nc(-c2ccccc2)n1-c1nccs1`, the T/C was 86 % of control under setting [4], 89 % of control under setting [5] and 91 % of control under setting [6].

Turning to `Cc1cc(O)ccc1Nc1ccc(N(CCCl)CCCl)cc1`, the T/C is, setting by setting: (dose: 200.0 mg/kg/injection, schedule: Q04DX003 (ip), vehicle: Klucel (hydroxypropylcellulose) (HPC)) 166 % of control; (dose: 400.0 mg/kg/injection, schedule: Q04DX003 (ip), vehicle: Klucel (hydroxypropylcellulose) (HPC)) 154 % of control.

Take `CC(C)(C)N1COC(c2ccccc2)C1` (stereo not given): the T/C runs as follows: (dose: 50.0 mg/kg/injection, schedule: Q01DX005 (ip), vehicle: saline) 106 % of control; (dose: 100.0 mg/kg/injection, schedule: Q01DX005 (ip), vehicle: saline) 111 % of control.

In the case of `O=C(Cc1nc2cc(Cl)c(Cl)cc2nc1CC(=O)c1ccncc1)c1ccncc1`, the T/C under setting [7] was 93 % of control, the T/C under setting [8] is 90 % of control and the T/C under setting [9] was 90 % of control.

Take `CC(C)(C)OC(=O)CN1C(=O)CCC1=O`: the T/C runs as follows: under setting [10], 99 % of control; under setting [11], 100 % of control; under setting [12], 106 % of control.

On to `COc1ccccc1/C=C1/C(=O)N(c2ccc([N+](=O)[O-])cc2)N=C1C`, for which the T/C runs as follows: under setting [10], 102 % of control; under setting [11], 103 % of control; under setting [12], 101 % of control.

In the case of `C=C(C)C(=O)NC(Cc1cnc[nH]1)C(=O)O` (stereo not given), the T/C runs as follows: under setting [13], 106 % of control; under setting [14], 107 % of control; under setting [15], 107 % of control.

For the molecule `C=C1C(=O)O[C@@H]2C(=O)[C@@H](C)[C@@H]3C=CC(=O)[C@@]3(C)[C@@H](OC(=O)/C(C)=C\C)[C@H]12`, the T/C by setting is: (dose: 2.0 mg/kg/injection, schedule: Q01DX009 (ip), vehicle: saline + alcohol) 107 % of control; (dose: 4.0 mg/kg/injection, schedule: Q01DX009 (ip), vehicle: saline + alcohol) 99 % of control; (dose: 8.0 mg/kg/injection, schedule: Q01DX009 (ip), vehicle: saline + alcohol) 109 % of control and 123 % of control; (dose: 16.0 mg/kg/injection, schedule: Q01DX009 (ip), vehicle: saline + alcohol) 116 % of control.

Turning to `COc1ccc(C(=O)C(Br)CS(=O)(=O)c2ccc(C)cc2)cc1` (stereo not given), the T/C was 100 % of control (dose: 100.0 mg/kg/injection, schedule: Q04DX002 (ip), vehicle: saline); 102 % of control (dose: 200.0 mg/kg/injection, schedule: Q04DX002 (ip), vehicle: saline); 108 % of control (dose: 400.0 mg/kg/injection, schedule: Q04DX002 (ip), vehicle: saline).

On to `COC(=O)C1=C(C)NC(C)=C(C(=O)OC)C1c1ccc(Cl)c([N+](=O)[O-])c1`, for which the T/C is, setting by setting: under setting [4], 99 % of control; under setting [5], 96 % of control; under setting [6], 92 % of control.

With `O=c1[nH]c(N2CCNCC2)nc2ccccc12`, the T/C was 102 % of control under setting [13], 101 % of control under setting [14] and 104 % of control under setting [15].

`COC(=O)CCSC(=O)NCCCCCCNC(=O)SCCC(=O)OC`: the T/C is 98 % of control under setting [10], 100 % of control under setting [11] and 98 % of control under setting [12].

Regarding `COc1ccc(-c2coc3cc(O)cc(O)c3c2=O)cc1`, the T/C runs as follows: under setting [16], 94 % of control; under setting [17], 110 % of control; under setting [18], 97 % of control; under setting [19], 107 % of control; under setting [20], 93 % of control; under setting [21], 104 % of control. For the same molecule, the T/C under setting [22] was 96 % of control.

As to `CC(=O)OCC(=O)[C@@]1(O)CC[C@H]2[C@@H]3C[C@H](F)C4=CC(=O)CC[C@]4(C)[C@H]3[C@@H](O)C[C@@]21C`, the T/C (dose: 100.0 mg/kg/injection, schedule: Q04DX003 (ip), vehicle: saline) is 104 % of control; the T/C (dose: 200.0 mg/kg/injection, schedule: Q04DX003 (ip), vehicle: saline) is 100 % of control; the T/C (dose: 400.0 mg/kg/injection, schedule: Q04DX003 (ip), vehicle: saline) was 95 % of control.

Consider `CCOC(=O)c1cn2ccccc2c1C(=O)OCC`, for which the T/C under setting [7] is 108 % of control, the T/C under setting [8] was 99 % of control and the T/C under setting [9] is 92 % of control.

Consider `CSC(=S)n1nc(-c2ccccc2)c(N=Nc2cccc(F)c2)c1-c1ccccc1`, for which the T/C (dose: 100.0 mg/kg/injection, schedule: Q04DX002 (ip), vehicle: saline with Tween-80) was 100 % of control; the T/C (dose: 200.0 mg/kg/injection, schedule: Q04DX002 (ip), vehicle: saline with Tween-80) is 97 % of control; the T/C (dose: 400.0 mg/kg/injection, schedule: Q04DX002 (ip), vehicle: saline with Tween-80) was 87 % of control.

Consider `CCC(C1SC(=S)NC1=O)C1SC(=S)NC1=O` (stereo not given), for which the T/C runs as follows: under setting [4], 92 % of control; under setting [5], 97 % of control.

With `CCOC(=O)c1c(OC)c(-c2ccccc2)c(=O)n2c3ccccc3n(C)c12`, the T/C runs as follows: under setting [7], 95 % of control; under setting [8], 88 % of control.

For the molecule `CCCCOC1OCN(C)CC1(C)C` (stereo not given), the T/C reads like this: under setting [16], 98 % of control; under setting [18], 114 % of control.

As for `S=C1NC2(CCCCC2)NC12CCCCC2`, the T/C is 86 % of control under setting [17], 93 % of control under setting [19], 98 % of control under setting [21] and 93 % of control under setting [22].

`CCc1nc(N)nc(N)c1-c1ccc(Cl)c(N=NN(C)C)c1`: the T/C was 92 % of control under setting [4], 97 % of control under setting [5] and 105 % of control under setting [6].

Turning to `CNP(=O)(N(C)C)N(C)C`, the T/C under setting [13] was 96 % of control, the T/C under setting [14] is 98 % of control and the T/C under setting [15] was 106 % of control.

`COC(=O)C1=NOC(Cc2ccccc2)C1` (stereo not given): the T/C by setting is: under setting [7], 100 % of control; under setting [8], 114 % of control; under setting [9], 96 % of control.

As for `CCC(c1ccc(OC)cc1)C(NC(=S)Nc1cccc(C)c1)c1ccc(OC)cc1` (stereo not given), the T/C under setting [1] was 90 % of control, the T/C under setting [2] is 92 % of control and the T/C under setting [3] is 93 % of control.

`CSCNC(=S)Nc1ccc(Cl)c(Cl)c1`: the T/C is, setting by setting: under setting [18], 100 % of control; under setting [20], 107 % of control.
